Measured values as given in patent US10428060B2, “PI-kinase inhibitors with anti-infective activity” (The Board of Trustees of the Leland Stanford Junior …, priority 2011, dated 2019).

How the values were obtained:
PI4KIIIA = molecular target: T1, PI4KIIIA (Homo sapiens, UniProt P42356); assay: PI4KIIIA kinase assay; format: biochemical
T1 construct: made in house; host or cells: COS-7 cells, transient transfection, anti-HA immunoprecipitate on protein G Sepharose beads
Procedure: In the assays described here, p110α-p85 complex and p110γ were acquired from Millipore. Assays were performed with Lα-phosphatidylinositol (Avanti) as described in Knight et al. Nat Protoc. 2007; 2 (10):2459-66. Inhibitor series were prepared 10% DMSO as 5× stocks for the assay. Assays of HsVps34 were performed as described in Knight et al, except that the final assay buffer composition used was changed to 20 mM HEPES 7.5, 100 mM NaCl, 3 mM MgCl, 1 mg/mL PI and 44 nM hvps34 was used in the assay. […] COS-7 cells were cultured in 10 cm dishes and transfected at 70% confluence with 10 μg of plasmid DNA (HA-tagged bovine PI4KIIIβ, HA-tagged human PI4KIIIα) using Lipofectamine 2000 and 5 ml Opti-MEM following the manufacturer's instructions. After 5 hours the transfection medium was replaced with 10 ml complete DMEM. 36 hrs post transfection, cells were washed once with 5 ml PBS (pH 7.4) and lysed in 1 ml of lysis buffer (1) on ice. Lysates were collected by scraping and after 15 min they were centrifuged at 13,000 rpm for 10 min. To the lysates was added 200 μl of protein G Sepharose 4 fast flow beads that were prewashed with PBS and lysis buffer and 2 μg of anti-HA antibody. The tubes were then incubated overnight at 4 degrees C. in a tube rotator. The Sepharose beads in the lysate were washed twice with 150 mM NaCl in RIPA buffer, twice with RIPA buffer and once with kinase buffer (50 mM Tris/HCl, pH 7.5, 20 mM MgCl2, 1 mM EGTA, 1 mM PtdIns, 0.4% Triton X-100, 0.5 mg/mL BSA) and finally the beads were resuspended in 200 μL kinase buffer. Kinase reactions were run in a mixture of 45 μL of PI buffer (1 mM PI in kinase buffer), 10 μL of immunoprecipitated beads, 2 µL of inhibitors (dissolved and diluted in DMSO) or DMSO and 5 μL of [γ-^32P]-ATP (1 mM and 2 μCi/tube). The immunoprecipitates in PI buffer were pre-incubated with the drugs for 20 min prior the initiation of kinase reaction by adding ATP and the reactions were carried out for 30 min in 15 ml polypropolyne tubes. […] Samples were counted in a scintillation beta counter after adding 5 ml of Instafluor (Perkin-Elmer). […]

PI3K p110g = molecular target: T2, PI3K p110g (Homo sapiens, UniProt P48736); assay: PI3K p110g kinase assay; format: biochemical
T2 construct: purchased Millipore
T2 sequence (P48736 whole entry): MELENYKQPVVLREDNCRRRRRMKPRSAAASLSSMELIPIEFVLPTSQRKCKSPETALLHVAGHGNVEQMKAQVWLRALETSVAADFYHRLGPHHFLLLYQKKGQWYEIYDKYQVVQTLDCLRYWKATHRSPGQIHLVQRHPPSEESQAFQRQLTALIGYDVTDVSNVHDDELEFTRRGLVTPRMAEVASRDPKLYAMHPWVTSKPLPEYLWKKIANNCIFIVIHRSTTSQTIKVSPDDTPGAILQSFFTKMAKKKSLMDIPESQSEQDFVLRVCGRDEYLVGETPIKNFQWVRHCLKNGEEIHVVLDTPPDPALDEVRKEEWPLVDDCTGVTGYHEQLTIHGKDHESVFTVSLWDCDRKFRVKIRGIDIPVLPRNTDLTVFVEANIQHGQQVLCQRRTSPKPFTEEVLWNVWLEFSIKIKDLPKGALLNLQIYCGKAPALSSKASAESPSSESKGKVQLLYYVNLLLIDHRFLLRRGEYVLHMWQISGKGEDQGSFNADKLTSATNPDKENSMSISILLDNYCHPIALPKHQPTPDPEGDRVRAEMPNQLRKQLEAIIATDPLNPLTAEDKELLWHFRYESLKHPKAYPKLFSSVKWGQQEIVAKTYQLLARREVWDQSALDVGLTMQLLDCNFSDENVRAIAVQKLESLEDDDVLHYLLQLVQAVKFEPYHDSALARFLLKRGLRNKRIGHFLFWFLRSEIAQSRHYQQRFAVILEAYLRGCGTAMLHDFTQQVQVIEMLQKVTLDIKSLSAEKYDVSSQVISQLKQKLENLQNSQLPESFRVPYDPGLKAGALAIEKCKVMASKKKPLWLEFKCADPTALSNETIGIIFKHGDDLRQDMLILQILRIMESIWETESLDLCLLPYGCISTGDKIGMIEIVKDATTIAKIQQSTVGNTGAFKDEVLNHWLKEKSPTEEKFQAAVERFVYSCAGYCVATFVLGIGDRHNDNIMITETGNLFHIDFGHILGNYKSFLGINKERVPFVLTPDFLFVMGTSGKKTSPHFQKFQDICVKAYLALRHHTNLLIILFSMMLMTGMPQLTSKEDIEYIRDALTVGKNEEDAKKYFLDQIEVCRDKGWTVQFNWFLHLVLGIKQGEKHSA

T1 sequence (P42356 whole entry): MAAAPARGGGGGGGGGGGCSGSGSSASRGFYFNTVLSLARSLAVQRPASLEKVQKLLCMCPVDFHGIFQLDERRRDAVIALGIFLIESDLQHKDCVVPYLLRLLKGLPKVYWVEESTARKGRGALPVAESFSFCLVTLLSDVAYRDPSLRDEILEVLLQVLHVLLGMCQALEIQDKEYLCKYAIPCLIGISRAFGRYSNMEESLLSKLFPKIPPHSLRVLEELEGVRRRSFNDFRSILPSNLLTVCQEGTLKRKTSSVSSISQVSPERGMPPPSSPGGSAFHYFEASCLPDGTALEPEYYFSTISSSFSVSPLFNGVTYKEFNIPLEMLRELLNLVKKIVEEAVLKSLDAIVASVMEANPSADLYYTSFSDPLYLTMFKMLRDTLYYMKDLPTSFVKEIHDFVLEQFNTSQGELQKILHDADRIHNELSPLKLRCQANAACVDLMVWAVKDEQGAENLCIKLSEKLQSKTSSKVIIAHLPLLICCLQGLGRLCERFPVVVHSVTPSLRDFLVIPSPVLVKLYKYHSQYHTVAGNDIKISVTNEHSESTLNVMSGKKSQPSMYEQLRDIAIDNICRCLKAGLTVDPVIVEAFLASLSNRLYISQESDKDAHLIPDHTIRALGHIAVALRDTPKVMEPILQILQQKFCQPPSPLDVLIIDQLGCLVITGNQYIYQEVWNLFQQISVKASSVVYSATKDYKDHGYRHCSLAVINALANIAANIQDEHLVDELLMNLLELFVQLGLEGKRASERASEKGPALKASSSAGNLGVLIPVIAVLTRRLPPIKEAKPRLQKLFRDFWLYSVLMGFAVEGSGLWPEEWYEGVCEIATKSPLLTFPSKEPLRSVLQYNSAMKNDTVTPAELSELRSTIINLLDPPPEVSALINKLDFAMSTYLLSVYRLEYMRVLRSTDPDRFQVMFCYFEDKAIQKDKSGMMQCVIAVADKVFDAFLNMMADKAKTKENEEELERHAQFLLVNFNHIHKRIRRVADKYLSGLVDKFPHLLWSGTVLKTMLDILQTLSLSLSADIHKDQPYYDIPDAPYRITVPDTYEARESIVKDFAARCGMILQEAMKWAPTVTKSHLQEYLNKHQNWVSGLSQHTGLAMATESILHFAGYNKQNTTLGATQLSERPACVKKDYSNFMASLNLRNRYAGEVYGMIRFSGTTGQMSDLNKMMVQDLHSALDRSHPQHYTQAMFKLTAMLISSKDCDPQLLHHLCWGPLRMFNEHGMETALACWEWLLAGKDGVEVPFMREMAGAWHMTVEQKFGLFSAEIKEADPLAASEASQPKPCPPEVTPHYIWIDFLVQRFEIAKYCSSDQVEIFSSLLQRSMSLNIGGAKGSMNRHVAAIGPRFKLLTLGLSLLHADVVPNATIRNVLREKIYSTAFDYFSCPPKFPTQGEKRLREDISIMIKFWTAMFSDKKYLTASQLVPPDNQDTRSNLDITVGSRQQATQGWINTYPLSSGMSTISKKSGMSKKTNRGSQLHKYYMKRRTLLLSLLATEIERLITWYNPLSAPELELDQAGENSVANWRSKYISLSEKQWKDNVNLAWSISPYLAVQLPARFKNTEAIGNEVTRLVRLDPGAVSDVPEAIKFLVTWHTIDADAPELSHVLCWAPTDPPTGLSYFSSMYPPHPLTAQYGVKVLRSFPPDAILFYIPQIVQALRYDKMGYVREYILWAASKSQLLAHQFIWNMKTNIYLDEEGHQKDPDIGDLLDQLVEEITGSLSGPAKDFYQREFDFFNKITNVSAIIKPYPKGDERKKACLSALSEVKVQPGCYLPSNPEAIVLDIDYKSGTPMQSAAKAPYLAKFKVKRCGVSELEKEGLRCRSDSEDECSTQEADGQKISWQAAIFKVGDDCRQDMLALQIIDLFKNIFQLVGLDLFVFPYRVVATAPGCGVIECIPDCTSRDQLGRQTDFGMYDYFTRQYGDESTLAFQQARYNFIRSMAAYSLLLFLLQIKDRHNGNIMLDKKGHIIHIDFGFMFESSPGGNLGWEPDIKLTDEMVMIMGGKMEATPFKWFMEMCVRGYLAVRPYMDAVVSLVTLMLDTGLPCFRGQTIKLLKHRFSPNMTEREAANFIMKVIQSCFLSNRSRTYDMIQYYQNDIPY

Q: Which results are given for `COc1ncc(-c2sc(NC(=O)CC3CCOCC3)nc2C)cc1S(=O)(=O)NC1CCCC(O)C1` (centres unmarked) [Compound S-263]?
A: IC50 (PI4KIIIA): < 100 nM; IC50 (PI3K p110g): 1000 to 10000 nM
